Assay results: PubChem BioAssay AID248 (DTP/NCI, 2004)
Where “and” joins values, the source holds several entries; their conditions need not be identical. Identical values can stand only once. Toxic doses and inconclusive results are not listed. Rule as the data show it: active = T/C of 150% or more; inactive = T/C below 125%.

Tested on: L1210 leukemia ip in BDF1 mice, survival T/C
Test: NCI In Vivo Anticancer Drug Screen. Data for tumor model L1210 Leukemia (intraperitoneal) in B6D2F1 (BDF1) mice
Conditions: endpoint: mean survival time, higher = longer survival
How it was run: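 Tumor was transplanted into mice, which were then dosed with test compound or vehicle alone. Survival was recorded for each group, and the treated figure was expressed relative to the control figure.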

[1] = dose: 25.0 mg/kg/injection, schedule: Q01DX009 (ip), vehicle: saline with Tween-80
[2] = dose: 50.0 mg/kg/injection, schedule: Q01DX009 (ip), vehicle: saline with Tween-80
[3] = dose: 100.0 mg/kg/injection, schedule: Q01DX009 (ip), vehicle: saline with Tween-80
[4] = dose: 100.0 mg/kg/injection, schedule: Q01DX009 (ip), vehicle: Klucel (hydroxypropylcellulose) (HPC)
[5] = dose: 200.0 mg/kg/injection, schedule: Q01DX009 (ip), vehicle: Klucel (hydroxypropylcellulose) (HPC)
[6] = dose: 100.0 mg/kg/injection, schedule: Q04DX003 (ip), vehicle: Klucel (hydroxypropylcellulose) (HPC)
[7] = dose: 200.0 mg/kg/injection, schedule: Q04DX003 (ip), vehicle: Klucel (hydroxypropylcellulose) (HPC)
[8] = dose: 400.0 mg/kg/injection, schedule: Q04DX003 (ip), vehicle: Klucel (hydroxypropylcellulose) (HPC)
[9] = dose: 100.0 mg/kg/injection, schedule: Q04DX003 (ip), vehicle: saline with Tween-80
[10] = dose: 200.0 mg/kg/injection, schedule: Q04DX003 (ip), vehicle: saline with Tween-80
[11] = dose: 400.0 mg/kg/injection, schedule: Q04DX003 (ip), vehicle: saline with Tween-80
[12] = dose: 75.0 mg/kg/injection, schedule: Q01DX001 (ip), vehicle: saline
[13] = dose: 50.0 mg/kg/injection, schedule: Q01DX001 (ip), vehicle: carboxymethylcellulose (CMC)
[14] = dose: 100.0 mg/kg/injection, schedule: Q01DX001 (ip), vehicle: carboxymethylcellulose (CMC)
[15] = dose: 200.0 mg/kg/injection, schedule: Q01DX001 (ip), vehicle: carboxymethylcellulose (CMC)
[16] = dose: 100.0 mg/kg/injection, schedule: Q04DX002 (ip), vehicle: saline

Measured: T/C

Cc1ccc2[nH]c3c(C)c4ccncc4c(C)c3c2c1
inactive: dose: 12.5 mg/kg/injection, schedule: Q01DX Z (ip), vehicle: saline 103 % of control | dose: 25.0 mg/kg/injection, schedule: Q01DX Z (ip), vehicle: saline 97 % of control | dose: 50.0 mg/kg/injection, schedule: Q01DX Z (ip), vehicle: saline 111 % of control | dose: 75.0 mg/kg/injection, schedule: Q01DX Z (ip), vehicle: saline 102 % of control | dose: 100.0 mg/kg/injection, schedule: Q01DX001 (ip), vehicle: saline 105 % of control | dose: 100.0 mg/kg/injection, schedule: Q01DX Z (ip), vehicle: saline 97 % of control and 107 % of control | dose: 150.0 mg/kg/injection, schedule: Q01DX Z (ip), vehicle: saline 100 % of control | dose: 200.0 mg/kg/injection, schedule: Q01DX001 (ip), vehicle: saline 98 % of control | dose: 225.0 mg/kg/injection, schedule: Q01DX Z (ip), vehicle: saline 105 % of control | dose: 340.0 mg/kg/injection, schedule: Q01DX Z (ip), vehicle: saline 102 % of control | dose: 400.0 mg/kg/injection, schedule: Q01DX001 (ip), vehicle: saline 100 % of control

CCC(CN(C)C)C(=O)c1ccccc1 (configuration not stated)
inactive: dose: 6.0 mg/kg/injection, schedule: Q01DX009 (ip), vehicle: saline 93 % of control | dose: 12.0 mg/kg/injection, schedule: Q01DX009 (ip), vehicle: saline 91 % of control | [1] 93 % of control | dose: 25.0 mg/kg/injection, schedule: Q01DX009 (ip), vehicle: saline 88 % of control | dose: 25.0 mg/kg/injection, schedule: Q04DX002 (ip), vehicle: saline with Tween-80 100 % of control | [2] 96 % of control | dose: 50.0 mg/kg/injection, schedule: Q04DX002 (ip), vehicle: saline with Tween-80 96 % of control | [3] 93 % of control | dose: 100.0 mg/kg/injection, schedule: Q04DX002 (ip), vehicle: saline with Tween-80 104 % of control

CC1NC(=O)OC12CCCCC2 (configuration not stated)
inactive: dose: 100.0 mg/kg/injection, schedule: Q01DX001 (ip), vehicle: saline with Tween-80 96 % of control | dose: 200.0 mg/kg/injection, schedule: Q01DX001 (ip), vehicle: saline with Tween-80 92 % of control | dose: 400.0 mg/kg/injection, schedule: Q01DX001 (ip), vehicle: saline with Tween-80 92 % of control

Cc1ccc(C(C)C)cc1NC(=O)Nc1ccccc1F
inactive: [4] 91 % of control | [5] 86 % of control

CC1(C)c2ccccc2C(O)(CCl)c2ccccc21
inactive: [6] 104 % of control | [7] 112 % of control | [8] 94 % of control

ICc1cc(CI)c(CI)cc1CI
inactive: [9] 92 % of control | [10] 91 % of control | [11] 91 % of control

Cc1ccc2c[n+]3cc4ccccc4cc3cc2c1
inactive: dose: 1.56 mg/kg/injection, schedule: Q04DX003 (ip), vehicle: saline 93 % of control | dose: 3.12 mg/kg/injection, schedule: Q01DX009 (ip), vehicle: saline 107 % of control | dose: 3.12 mg/kg/injection, schedule: Q04DX003 (ip), vehicle: saline 114 % of control | dose: 6.25 mg/kg/injection, schedule: Q01DX009 (ip), vehicle: saline 105 % of control | dose: 6.25 mg/kg/injection, schedule: Q04DX003 (ip), vehicle: saline 103 % of control | dose: 12.5 mg/kg/injection, schedule: Q04DX003 (ip), vehicle: saline 107 % of control

COc1ccccc1CNC1CCCCC1
inactive: [12] 92 % of control

CC(C)CCc1nc2c(c(=O)n(C)c(=O)n2C)n1C
inactive: [13] 116 % of control | [14] 103 % of control | [15] 103 % of control | dose: 400.0 mg/kg/injection, schedule: Q01DX001 (ip), vehicle: carboxymethylcellulose (CMC) 103 % of control

O=P(O)(O)c1cccc(Oc2ccccc2)c1
inactive: [12] 100 % of control | dose: 150.0 mg/kg/injection, schedule: Q01DX001 (ip), vehicle: saline 100 % of control

CCOC(=O)C(C)(O)C1(Cl)CCC(C(C)(C)C)CC1 (configuration not stated)
inactive: [16] 103 % of control | dose: 200.0 mg/kg/injection, schedule: Q04DX002 (ip), vehicle: saline 103 % of control | dose: 400.0 mg/kg/injection, schedule: Q04DX002 (ip), vehicle: saline 100 % of control

N#CCCC(=O)c1ccncc1
inactive: [9] 96 % of control | [10] 107 % of control | [11] 104 % of control

NC(=O)N/N=C(/c1ccccc1)c1ccccn1
inactive: [3] 101 % of control | dose: 200.0 mg/kg/injection, schedule: Q01DX009 (ip), vehicle: saline with Tween-80 100 % of control | dose: 400.0 mg/kg/injection, schedule: Q01DX009 (ip), vehicle: saline with Tween-80 101 % of control

NC(=O)NCCc1ccccc1
inactive: [6] 102 % of control | [7] 97 % of control | [8] 102 % of control

CCOC(=O)c1ccc(NC(=O)Oc2cc(=O)oc3ccccc23)cc1
inactive: [4] 97 % of control | [5] 95 % of control | dose: 400.0 mg/kg/injection, schedule: Q01DX009 (ip), vehicle: Klucel (hydroxypropylcellulose) (HPC) 96 % of control

CCCNCCC[P+](c1ccccc1)(c1ccccc1)c1ccccc1
inactive: dose: 25.0 mg/kg/injection, schedule: Q04DX002 (ip), vehicle: saline 102 % of control | dose: 50.0 mg/kg/injection, schedule: Q04DX002 (ip), vehicle: saline 98 % of control | [16] 98 % of control and 91 % of control

CC(C)=C(CSC#N)S(=O)(=O)c1ccc(C)cc1
inactive: dose: 3.12 mg/kg/injection, schedule: Q01DX009 (ip), vehicle: Klucel (hydroxypropylcellulose) (HPC) 103 % of control | dose: 6.25 mg/kg/injection, schedule: Q01DX009 (ip), vehicle: Klucel (hydroxypropylcellulose) (HPC) 101 % of control | dose: 12.5 mg/kg/injection, schedule: Q01DX009 (ip), vehicle: Klucel (hydroxypropylcellulose) (HPC) 97 % of control

O=S1(=O)CCCO1
inactive: dose: 100.0 mg/kg/injection, schedule: Q01DX009 (ip), vehicle: other 103 % of control | dose: 200.0 mg/kg/injection, schedule: Q01DX009 (ip), vehicle: other 109 % of control

CCCCCCOC(=O)Nc1cccc(O)c1
inactive: [9] 104 % of control | [10] 101 % of control | [11] 91 % of control

OC[P+](c1ccccc1)(c1ccccc1)c1ccccc1
inactive: dose: 100.0 mg/kg/injection, schedule: Q04DX003 (ip), vehicle: saline 98 % of control | dose: 200.0 mg/kg/injection, schedule: Q04DX003 (ip), vehicle: saline 98 % of control

O=C(Nc1ccc(F)cc1)Nc1cccc(O)c1
inactive: [13] 106 % of control | dose: 50.0 mg/kg/injection, schedule: Q04DX002 (ip), vehicle: carboxymethylcellulose (CMC) 97 % of control and 98 % of control | dose: 50.0 mg/kg/injection, schedule: Q04DX003 (ip), vehicle: carboxymethylcellulose (CMC) 101 % of control | [14] 103 % of control | dose: 100.0 mg/kg/injection, schedule: Q01DX009 (ip), vehicle: carboxymethylcellulose (CMC) 92 % of control and 101 % of control | dose: 100.0 mg/kg/injection, schedule: Q04DX002 (ip), vehicle: carboxymethylcellulose (CMC) 94 % of control and 95 % of control and 98 % of control | dose: 100.0 mg/kg/injection, schedule: Q04DX003 (ip), vehicle: carboxymethylcellulose (CMC) 102 % of control | [15] 96 % of control | dose: 200.0 mg/kg/injection, schedule: Q01DX009 (ip), vehicle: carboxymethylcellulose (CMC) 98 % of control | dose: 200.0 mg/kg/injection, schedule: Q04DX002 (ip), vehicle: carboxymethylcellulose (CMC) 95 % of control and 101 % of control and 90 % of control | dose: 200.0 mg/kg/injection, schedule: Q04DX003 (ip), vehicle: carboxymethylcellulose (CMC) 98 % of control | dose: 400.0 mg/kg/injection, schedule: Q01DX009 (ip), vehicle: carboxymethylcellulose (CMC) 98 % of control and 103 % of control

CCN1CCC2CN(C(=S)Nc3ccccc3)CCN2C1=O (configuration not stated)
inactive: [9] 97 % of control | [10] 94 % of control | [11] 91 % of control

CCN(CC)CCn1c2ccccc2c2cnccc21
inactive: dose: 25.0 mg/kg/injection, schedule: Q04DX003 (ip), vehicle: saline 100 % of control | dose: 50.0 mg/kg/injection, schedule: Q04DX003 (ip), vehicle: saline 97 % of control

O=C(COc1ccccc1)N/N=C/c1cccc([N+](=O)[O-])c1
inactive: [1] 92 % of control | [2] 86 % of control | [3] 86 % of control
